Measured values taken from patent publication US11583502B2, “Pharmaceutical compositions comprising a thyroid hormone beta agonist, method of use and method making thereof” (GANNEX PHARMA CO., LTD., priority 2020, dated 2023).

Experiments:
[1] = Solubility of the compound of Formula (I) in media without surfactant; type: physicochemical
Source text: The compound of Formula (I), however, is a lipophilic drug that is highly insoluble in water. […] The very low solubility limits its use in research and development as a drug candidate.
For drugs with poor solubility, in vitro dissolution evaluation is a simple and effective method for predicting and comparing dissolution in vivo. In vitro dissolution evaluation is also an important criterion for screening prescription drugs for quality control. […] Therefore, in order to completely dissolve the compound in a conventional 900 ml medium for a 10 mg/unit dose formulation, it is necessary to increase the solubility of the compound to at least 11.11 μg/ml. It would be difficult to achieve such a target with conventional solubilization technology.

[2] = type: physicochemical; settings: 3.5 hours

**Q.** What does the source list for `Cc1cc(OC[P@@]2(=O)OCC[C@@H](c3cccc(Cl)c3)O2)cc(C)c1Cc1ccc(O)c(C(C)C)c1` [compound of Formula (I)]?
**A.** solubility ([1]; aqueous buffer, hydrochloric acid solution, buffer, and water without surfactant at 37° C. and pH 1.0˜9.0): < 0.5 ng/mL; solubility ([1]; medium containing no surfactant): < 0.5 ng/mL; drug undergoing degradation reactions [2]: 10.2%
